The source of these data is paper PMC4262670 (Macromolecular bioscience, 2014).

The conditions of data set [1]: cited from earlier work; for water solubility of free drugs: medium with 0.5 % (v/v) DMSO used to prevent precipitation, no reference given.
Data set [2] relates to A2780 and OVCAR-3 human ovarian cancer cell lines. Briefly: Single agent in vitro cytotoxicity, WST-8, result stated over both cell lines. The conditions noted are these: A2780 versus OVCAR-3, WST-8. In kind it is cell-based. On the technique in general: Tetrazolium dyes change colour on reduction, which living cells bring about.
The conditions of data set [3]: ref [8]; cited from earlier work.
For data set [4] the following is noted: ref [13]–[15]; cited from earlier work.
The conditions of data set [5]: clinical investigation; ref [31]; cited from earlier work.
The test system of data set [6] is non-small cell lung carcinoma (NSCLC). Particulars: ref [59]; cited from earlier work.
The test system of data set [7] is first recurrence of ovarian cancer. Particulars: added to carboplatin and gemcitabine; ref [56]; cited from earlier work.

`C=CCNC1=C2C[C@@H](C)C[C@H](OC)[C@H](O)[C@@H](C)/C=C(\C)[C@H](OC(N)=O)[C@@H](OC)/C=C\C=C(/C)C(=O)NC(=CC1=O)C2=O` [17-AAG, 17-(allylamino)-17-demethoxygeldanamycin]: the “water solubility, ref 32” value in data set [1] (ref [32]) was “poorly water soluble”.

On to `CO[C@H]1/C=C\C=C(/C)C(=O)NC2=CC(=O)C(NCCCCCCN)=C(C[C@@H](C)C[C@H](OC)[C@H](O)[C@@H](C)/C=C(\C)[C@@H]1OC(N)=O)C2=O` [AHGDM, 17-(hexane-1,6-diamine)-17-demethoxygeldanamycin], for which the “differences in susceptibility of cell lines” value in data set [2] is “did not indicate overall trends in differences in the susceptibility”. Also, in data set [1], the “water solubility of free drugs” value was “poor water solubility”. Regarding `CC(=O)O[C@@]12CO[C@@H]1C[C@H](O)[C@@]1(C)C(=O)[C@H](O)C3=C(C)[C@@H](OC(=O)[C@H](O)[C@@H](NC(=O)OC(C)(C)C)c4ccccc4)C[C@@](O)([C@@H](OC(=O)c4ccccc4)[C@H]21)C3(C)C` [DOC, docetaxel], the “in vitro cytotoxicity compared to paclitaxel” value in data set [3] was “superior in vitro cytotoxicity”. Also, in data set [4], the “cross resistance with paclitaxel” value was “does not demonstrate complete cross resistance with paclitaxel”. Also, the “differences in susceptibility of cell lines” value in data set [2] is reported as “did not indicate overall trends in differences in the susceptibility”. Further, the “water solubility of free drugs” value in data set [1] is recorded as “poor water solubility”. As to `COC1=C2C[C@@H](C)C[C@H](OC)[C@H](O)[C@@H](C)/C=C(\C)[C@H](OC(N)=O)[C@@H](OC)/C=C\C=C(/C)C(=O)NC(=CC1=O)C2=O` [geldanamycin], the “hepatotoxicity” value in data set [5] is “significant hepatotoxicity”. Take `CC(=O)O[C@H]1C(=O)[C@@]2(C)[C@H]([C@H](OC(=O)c3ccccc3)[C@]3(O)C[C@H](OC(=O)[C@H](O)[C@@H](NC(=O)c4ccccc4)c4ccccc4)C(C)=C1C3(C)C)[C@]1(OC(C)=O)CO[C@@H]1C[C@@H]2O` [paclitaxel]: the mean survival time in data set [6] is on record as 6.5 weeks.

As for “bevacizumab: anti-angiogenic monoclonal antibody against VEGF-A, added to carboplatin and gemcitabine”, the “disease progression and overall survival” value in data set [7] was “greater reduction in risk of disease progression and an improvement in overall survival”.
